# Source: ChEMBL document CHEMBL1697731, “Cheminformatics analysis of assertions mined from literature that describe drug-induced liver injury in different species” (Chem Res Toxicol, 2010)
# What was measured:
# Hepatotoxicity [1] = assay: Literature-mined compound from Fourches et al multi-species drug-induced liver injury (DILI) dataset, effect in non-rodents
# Hepatotoxicity [2] = assay: Literature-mined compound from Fourches et al multi-species drug-induced liver injury (DILI) dataset, effect in humans; details: human
# Hepatotoxicity [3] = assay: Literature-mined compound from Fourches et al multi-species drug-induced liver injury (DILI) dataset, effect in rodents; details: rodentia
Structure (SMILES),Hepatotoxicity (Hepatotoxicity [1]),Hepatotoxicity (Hepatotoxicity [2]),Hepatotoxicity (Hepatotoxicity [3]),Hepatotoxicity (Hepatotoxicity [1]; Liver),Hepatotoxicity (Hepatotoxicity [2]; Liver),Hepatotoxicity (Hepatotoxicity [3]; Liver)
O=C(CCCCC(=O)Nc1c(I)cc(I)c(C(=O)O)c1I)Nc1c(I)cc(I)c(C(=O)O)c1I [IODIPAMIDE],drug-induced liver injury reported,no drug-induced liver injury reported,drug-induced liver injury reported,,,
CC(=O)N(CC(O)CO)c1c(I)c(C(=O)NCC(O)CO)c(I)c(C(=O)NCC(O)CO)c1I (centres undefined) [IOHEXOL],drug-induced liver injury reported,no drug-induced liver injury reported,no drug-induced liver injury reported,,,
CC(C)NNC(=O)COc1ccc(Cl)cc1 [IPROCLOZIDE],no drug-induced liver injury reported,drug-induced liver injury reported,no drug-induced liver injury reported,,,
CC(C)NNC(=O)c1ccncc1 [IPRONIAZID],no drug-induced liver injury reported,drug-induced liver injury reported,drug-induced liver injury reported,,,
CCCCC1=NC2(CCCC2)C(=O)N1Cc1ccc(-c2ccccc2-c2nnn[nH]2)cc1 [IRBESARTAN],no drug-induced liver injury reported,drug-induced liver injury reported,drug-induced liver injury reported,,,
CCc1c2c(nc3ccc(OC(=O)N4CCC(N5CCCCC5)CC4)cc13)-c1cc3c(c(=O)n1C2)COC(=O)[C@]3(O)CC [IRINOTECAN],no drug-induced liver injury reported,drug-induced liver injury reported,no drug-induced liver injury reported,,,
CC(C)Nc1ncccn1.O=P(O)(O)O [ISAXONINE PHOSPHATE],no drug-induced liver injury reported,drug-induced liver injury reported,no drug-induced liver injury reported,,,
O=c1c(-c2ccccc2)coc2ccccc12 [ISOFLAVONE],drug-induced liver injury reported,no drug-induced liver injury reported,no drug-induced liver injury reported,,,
FC(F)OC(Cl)C(F)(F)F (centres undefined) [ISOFLURANE],drug-induced liver injury reported,drug-induced liver injury reported,drug-induced liver injury reported,,,
NNC(=O)c1ccncc1 [ISONIAZID],drug-induced liver injury reported,drug-induced liver injury reported,drug-induced liver injury reported,,,
CC(C)O [ISOPROPYL ALCOHOL],no drug-induced liver injury reported,no drug-induced liver injury reported,drug-induced liver injury reported,,,
CC(C)NCC(O)c1ccc(O)c(O)c1 (centres undefined) [ISOPROTERENOL],,,,drug-induced liver injury reported,drug-induced liver injury reported,drug-induced liver injury reported
O=[N+]([O-])O[C@H]1CO[C@H]2[C@@H]1OC[C@H]2O[N+](=O)[O-] [ISOSORBIDE DINITRATE],no drug-induced liver injury reported,drug-induced liver injury reported,drug-induced liver injury reported,,,
O=[N+]([O-])O[C@@H]1CO[C@H]2[C@@H]1OC[C@@H]2O [ISOSORBIDE MONONITRATE],no drug-induced liver injury reported,drug-induced liver injury reported,no drug-induced liver injury reported,,,
CC1=C(/C=C/C(C)=C/C=C/C(C)=C\C(=O)O)C(C)(C)CCC1 [ISOTRETINOIN],no drug-induced liver injury reported,drug-induced liver injury reported,no drug-induced liver injury reported,,,
CC(COc1ccccc1)NC(C)C(O)c1ccc(O)cc1 (centres undefined) [ISOXSUPRINE],no drug-induced liver injury reported,no drug-induced liver injury reported,drug-induced liver injury reported,,,
COC(=O)C1=C(C)NC(C)=C(C(=O)OC(C)C)C1c1cccc2nonc12 (centres undefined) [ISRADIPINE],no drug-induced liver injury reported,drug-induced liver injury reported,no drug-induced liver injury reported,,,
CCC(C)n1ncn(-c2ccc(N3CCN(c4ccc(OCC5COC(Cn6cncn6)(c6ccc(Cl)cc6Cl)O5)cc4)CC3)cc2)c1=O (centres undefined) [ITRACONAZOLE],no drug-induced liver injury reported,drug-induced liver injury reported,drug-induced liver injury reported,,,
C/C(=C\c1csc(C)n1)[C@@H]1C[C@@H]2O[C@]2(C)CCC[C@H](C)[C@H](O)[C@@H](C)C(=O)C(C)(C)[C@@H](O)CC(=O)N1 [IXABEPILONE],no drug-induced liver injury reported,drug-induced liver injury reported,no drug-induced liver injury reported,,,

Structure (SMILES),Hepatotoxicity (Hepatotoxicity [1]),Hepatotoxicity (Hepatotoxicity [2]),Hepatotoxicity (Hepatotoxicity [3]),Hepatotoxicity (Hepatotoxicity [1]; Liver),Hepatotoxicity (Hepatotoxicity [2]; Liver),Hepatotoxicity (Hepatotoxicity [3]; Liver)
CNC1(c2ccccc2Cl)CCCCC1=O (centres undefined) [KETAMINE],drug-induced liver injury reported,no drug-induced liver injury reported,drug-induced liver injury reported,,,
O=C(c1ccc(F)cc1)C1CCN(CCn2c(=O)[nH]c3ccccc3c2=O)CC1 [KETANSERIN],no drug-induced liver injury reported,drug-induced liver injury reported,drug-induced liver injury reported,,,
CC(=O)N1CCN(c2ccc(OCC3COC(Cn4ccnc4)(c4ccc(Cl)cc4Cl)O3)cc2)CC1 (centres undefined) [KETOCONAZOLE],drug-induced liver injury reported,drug-induced liver injury reported,drug-induced liver injury reported,,,
CC(C(=O)O)c1cccc(C(=O)c2ccccc2)c1 (centres undefined) [KETOPROFEN],no drug-induced liver injury reported,drug-induced liver injury reported,no drug-induced liver injury reported,,,
COc1c2occc2c(OC)c2c(=O)cc(C)oc12 [KHELLIN],no drug-induced liver injury reported,no drug-induced liver injury reported,drug-induced liver injury reported,,,
CC(CCc1ccccc1)NCC(O)c1ccc(O)c(C(N)=O)c1 (centres undefined) [LABETALOL],no drug-induced liver injury reported,drug-induced liver injury reported,no drug-induced liver injury reported,,,
CC(O)C(=O)O (centres undefined) [LACTIC ACID],drug-induced liver injury reported,drug-induced liver injury reported,drug-induced liver injury reported,,,
OC[C@H]1O[C@@H](O[C@@H]2[C@@H](CO)O[C@](O)(CO)[C@H]2O)[C@H](O)[C@@H](O)[C@H]1O [LACTULOSE],no drug-induced liver injury reported,drug-induced liver injury reported,drug-induced liver injury reported,,,
Nc1ccn([C@@H]2CS[C@H](CO)O2)c(=O)n1 [LAMIVUDINE],no drug-induced liver injury reported,drug-induced liver injury reported,drug-induced liver injury reported,,,
Nc1nnc(-c2cccc(Cl)c2Cl)c(N)n1 [LAMOTRIGINE],no drug-induced liver injury reported,drug-induced liver injury reported,no drug-induced liver injury reported,,,
CC(C)[C@@H]1NC(=O)[C@H](CCCCN)NC(=O)[C@@H](Cc2c[nH]c3ccccc23)NC(=O)[C@H](Cc2ccc(O)cc2)NC(=O)[C@@H](NC(=O)[C@H](N)Cc2ccc3ccccc3c2)CSSC[C@@H](C(=O)N[C@H](C(N)=O)[C@@H](C)O)NC1=O [LANREOTIDE],no drug-induced liver injury reported,drug-induced liver injury reported,no drug-induced liver injury reported,,,
Cc1c(OCC(F)(F)F)ccnc1C[S+]([O-])c1nc2ccccc2[nH]1 (centres undefined) [LANSOPRAZOLE],no drug-induced liver injury reported,drug-induced liver injury reported,no drug-induced liver injury reported,,,
CC1(C)CCC2=C(O1)c1ccccc1C(=O)C2=O [LAPACHONE],no drug-induced liver injury reported,drug-induced liver injury reported,no drug-induced liver injury reported,,,
Cc1oncc1C(=O)Nc1ccc(C(F)(F)F)cc1 [LEFLUNOMIDE],no drug-induced liver injury reported,drug-induced liver injury reported,drug-induced liver injury reported,,,
Nc1nc2c(c(=O)[nH]1)N(C=O)C(CNc1ccc(C(=O)N[C@@H](CCC(=O)O)C(=O)O)cc1)CN2 (some centres undefined) [LEUCOVORIN],no drug-induced liver injury reported,drug-induced liver injury reported,drug-induced liver injury reported,,,
c1ccc([C@H]2CN3CCSC3=N2)cc1 [LEVAMISOLE],,,,no drug-induced liver injury reported,drug-induced liver injury reported,drug-induced liver injury reported
N[C@@H](Cc1ccc(O)c(O)c1)C(=O)O [LEVODOPA],no drug-induced liver injury reported,drug-induced liver injury reported,drug-induced liver injury reported,,,
C[C@H]1COc2c(N3CCN(C)CC3)c(F)cc3c(=O)c(C(=O)O)cn1c23.C[C@H]1COc2c(N3CCN(C)CC3)c(F)cc3c(=O)c(C(=O)O)cn1c23.O [LEVOFLOXACIN],no drug-induced liver injury reported,drug-induced liver injury reported,no drug-induced liver injury reported,,,
C[C@@H]1CC(=O)NN=C1c1ccc(NN=C(C#N)C#N)cc1 [LEVOSIMENDAN],drug-induced liver injury reported,no drug-induced liver injury reported,no drug-induced liver injury reported,,,
